Reference: patent US10925851B2 (Regents of the University of Minnesota, priority 2018, dated 2021)
“Also recorded” adds a separate entry of the source. Read-outs that look alike come from different tables or passages of the source.

Legend:
male CF-1 mice = experiment: Tail-flick assay (acute thermal pain); format: in vivo; details: i.c.v. 100 μg per mouse, 15-90 min
Procedure: The Tail-Flick test comprises of acute nociception in which the tail of the test animal is thermally stimulated. The time it takes for the animal to either flick or withdraw its tail is recorded as a measure of the response to the thermal stimuli. For this test, mice were gently restrained in a cloth; the tail-flick beam was centered on the dorsal surface of the tail (about 15 mm from the end of the tail). The heat source was activated, and the latency for withdrawal of the tail was recorded. The intensity of the tail-flick beam was adjusted so that the average withdrawal time of the baseline measurement was 2 to 4 sec. For each animal, a baseline response latency was determined in two consecutive responses measured at 5 minute intervals. Animals were tested at 15, 30, 45, 60, 75, and 90 minutes after drug administration.
While hot-plate method is more sensitive at supraspinal level, the tail-flick method mostly embodies a spinal reflex response to noxious stimuli. […] The time it takes for the animal to either flick or withdraw its tail is recorded as a measure of the response to the stimuli. […]
Columbus Instruments tail-flick analgesiometer was employed for this experiment. […] The heat source was activated, and the latency for withdrawal of the tail recorded. […] For each animal, a baseline response latency was determined in two consecutive responses measured at 5 min intervals. […]

mice [1] = experiment: Acetic acid writhing test (persistent pain); format: in vivo, mouse
Procedure: Acclimatized animals are treated systemically with a dilute solution of acetic acid inducing abdominal constrictions (writhes) or extension of hind limbs in the animal. The writhes and extensions are counted within a predetermined period of time to analyze the efficacy of the test compound. […] Percent inhibition is calculated according to the equation: % Inhibition=[(Mean number of writhes for control−Mean number of writhes for test compound)/(Mean number of writhes for control)]×100.
The mice were given vehicle or test compounds 15 min before acetic acid administration. Subsequently, all the groups of mice were injected with 1% (10 mL/kg) acetic acid solution intraperitoneally to induce writhing. The animals display characteristic movements such as extension of hind limb, abdominal constriction, and trunk twisting movement called writhing. The numbers of writhing episodes in 30 min period beginning at the time of the acetic acid administration were counted. […] APAP was dissolved in saline. Both test compounds were delivered intraperitoneally to the test animals.

mice [2] = experiment: Formalin test (persistent pain); format: in vivo, mouse
Procedure: The formalin test is another variant model for analyzing pain-relieving properties of test compounds in pain produced by inflammation or by injury to peripheral tissue. It is divergent from the acetic acid writhing assay in producing a biphasic response. These pharmacologically distinct phases are generally observed from 1 to 10 minutes, and 15 to 60 minutes post injection. While phase-I is caused by a rapid relay response in pain fibers, sensitization due to peripheral inflammation results in phase-II response in this model.
Mice were injected with 20 μl of 2% buffered formalin solution into the intraplantar region of hind paw of mice and the total time spent in licking and biting of the formalin-treated paw by the animals over the course of 30 min (phase I, acute pain behavior, 0-5 min; phase II, chronic pain behavior, 15-30 min) was recorded. Test compounds were injected 15 min prior to formalin administration. The pain response time (licking time) was recorded for every 5-min period during the 30-min recording for each mouse. The test compounds were dissolved in 50% saline in DMSO solution and delivered systemically

mice [3] = experiment: Co-administration of opioid antagonist naloxone in hot-plate and tail-flick assays; format: in vivo, mouse
Procedure: Naloxone dissolved in saline was either administered subcutaneously (s.c.; dosage: 5 mg/Kg) via an injection to the interscapular skin, or it was given intracerebroventricularly (5 μg per mouse).
Naloxone is a broad-spectrum opioid receptor antagonist. It is known to interact with, mu- (μ-), delta- (δ-), and kappa- (κ-) opioid receptors, with highest affinity for the μ receptors. […] Naloxone dissolved in saline was delivered subcutaneously (s.c.) via an injection to the interscapular skin.
5 mg/Kg naloxone dissolved in saline was administered subcutaneously (s.c.) via an injection to the interscapular skin. Analgesic efficacy for various time-points was determined in hot-plate and tail-flick assays as detailed above.

male CF1 mice = experiment: Hot-plate test (acute thermal pain)
Procedure: The hot plate was the top surface of an enclosed cylindrical glass bath through which thermostatically controlled hot water was circulated. Under the conditions used, the temperature of the surface of the cylinder was maintained at 55° C. […] Reaction times were also determined twice for each mouse at 15-min intervals half an hour before injecting the drug to establish a baseline reaction time control value. Mice having a mean reaction time greater than 13 seconds were excluded as non-responders.
In this transient pain model, a thermal analgesiometer hot-plate was utilized for the determination of antinociceptive potency of test compounds against acute thermal stimulus. Mice were administered compounds via intraperitoneal (i.p.) or intracerebroventricular (i.c.v.) routes. […] The results are expressed as a percent of the maximum possible effect (% MPE) according to the equation: % MPE=[(Post-drug latency−Pre-drug latency)/(Cutoff−Pre-drug latency)]×100.
The hot-plate was the top surface of an enclosed cylindrical glass bath through which thermostatically controlled hot water was circulated. Under the conditions used, the temperature of the surface of the cylinder was maintained at 55° C. […] Test compounds were administered via intraperitoneal (i.p.) or intracerebroventricular (i.c.v.) routes. […] Animals with a mean reaction time greater than 13 seconds were excluded as non-responders.

mice [4] = experiment: Combination therapy with morphine, isobolographic analysis in tail-flick assay; details: for Dose Reduction Index (DRI) Tosedostat: in combination with morphine; for ED50: Mus musculus, ip

## CC(C)C[C@@H](C(=O)N[C@H](C(=O)OC1CCCC1)c1ccccc1)[C@H](O)C(=O)NO [Tosedostat]
Male CF-1 mice
  analgesic effect: does not impart analgesic effect; also recorded: does not prompt a potent analgesic effect; also recorded: ineffective in furnishing an antinociceptive response
Mice [1]; i.p.
  dosage required for analgesic effect equivalent to 200 mg/Kg APAP: 1 mg/kg
Mice [1]; i.p. 50 mg/Kg
  inhibition of writhings: > 90%
Mice [1]; i.p., 30-minute count after acetic acid
  attenuation of writhing episodes compared to control groups: significant attenuation of writhing episodes in a dose-dependent manner
Mice [2]; i.p.
  phase-I response: dose-dependent response
Mice [2]; i.p., dosages as low as 1 mg/Kg
  phase-II nociceptive action of formalin: completely suppressed
Mice [2]; same assay
  potency in comparison with APAP: significantly advantageous in potency
Mice [3]; tosedostat 58.1 mg/Kg i.p. + naloxone 5 μg per mouse i.c.v.
  effect of centrally administered naloxone on analgesic response of tosedostat: no attenuation of analgesic response
Mice [3]; tosedostat 58.1 mg/Kg i.p. + naloxone 5 mg/Kg s.c.
  effect of subcutaneous naloxone on analgesic action of tosedostat: partially blocked the analgesic action
Male CF1 mice; i.c.v. 100 μg per mouse, 15-90 min post injection
  analgesic effect (% MPE time course): did not show analgesic effect; also recorded: nominal analgesic effect; also recorded: did not register substantial analgesic outcome; also recorded: ineffective in furnishing an antinociceptive response
Male CF1 mice; i.c.v. 100 μg per mouse, 15 minutes after injection
  analgesic effect, single time-point: nominal analgesic effect
Male CF1 mice; i.p., over the course of 90 minutes
  analgesic response in hot-plate compared to tail-flick experiments: about two-fold better analgesic response
Mice [4]; 15 min
  Dose Reduction Index (DRI) Tosedostat: 2.52
Mice [4]; 30 min
  Dose Reduction Index (DRI) Tosedostat: 1.91
Mice [4]; 45 min
  Dose Reduction Index (DRI) Tosedostat: 1.79
Mice [4]; 60 min
  Dose Reduction Index (DRI) Tosedostat: 2.21
Mice [4]; 0.25 h, read-out: Tosedostat ED50 (±SEM)
  ED50: 89 ± 109 mg/kg
Mice [4]; 0.5 h, read-out: Tosedostat ED50 (±SEM)
  ED50: 85.8 ± 132 mg/kg
Mice [4]; 0.75 h, read-out: Tosedostat ED50 (±SEM)
  ED50: 71.5 ± 47.6 mg/kg
Mice [4]; 1 h, read-out: ED50, given alone
  ED50: 58.1 to 82 mg/kg
Mice [4]; 1 h, read-out: Tosedostat ED50 (±SEM)
  ED50: 97.3 ± 33.6 mg/kg
